Data set [1] can be described thus: Optical characteristics (UV-Vis absorption and fluorescence spectroscopy). The class given is physicochemical. To be noted: physiological conditions. Here is the method:
UV-visible spectra were obtained with Shimadzu UV-1800. A fluorescence spectroscopic test was performed with Hitachi F7000.
The slit width in the fluorescence measurement was 1 nm for both excitation and light emission. The photomultiplier tube voltage was 400 V. The area under the light emission spectrum of the test sample and the spectral area of the standard sample were determined and calculated by the following equation to determine a relative fluorescence quantum yield (Φfl).
The optical characteristics of the probe (1 μM) were examined in a 0.1 M sodium phosphate buffer containing 0.1% DMSO as a co-solvent.
Therefore, it is expected that HMRIef in which iodine is introduced into the xanthene ring site of HMRef is also placed in the same equilibrium. […] In addition, a fluorescence spectrum was also measured. […]
FIG. 3(a) illustrates the chemical structure and optical characteristics of HMRIef. FIG. 3(b) illustrates the measurement results of the absorption spectrum and fluorescence spectrum of HMRIef (measurement was performed in a 0.1 M sodium phosphate buffer containing 0.1% DMSO as a co-solvent. dye concentration: 1 μM (absorption) or 10 μM (fluorescence)). FIG. 3(c) illustrates the measurement results of the absorption spectra measured in 0.1 M sodium phosphate buffers with various pH containing 0.1% DMSO as a co-solvent (dye concentration: 1 μM). […]

Data set [2] in a line: Detection of singlet oxygen by near infrared spectroscopy. The class given is physicochemical. To be noted: PBS pH 7.4, 0.1% DMSO, dye 1 μM, 508 nm excitation; mean±S.D. Here is the method: Singlet oxygen was detected by measuring ^1O2 light emission near 1,270 nm by laser irradiation using a near infrared emission spectrometer (Fluorolog-3, Horiba, Japan). A dye was dissolved in phosphate buffered saline (PBS) containing 0.1% DMSO as a co-solvent and irradiation was performed with light at a wavelength of 508 nm. In order to calculate a ^1O2 quantum yield, the light emission signal was integrated for each wavelength for 7 seconds. A singlet oxygen generation quantum yield was calculated using Rose bengal (0.75) (DeRosa, M. C. & Crutchley, R. J. Photosensitized singlet oxygen and its applications. Coordination Chemistry Reviews 233-234, 351-371, doi:10.1016/S0010-8545(02)00034-6 (2002)) in PBS as a reference.
Whether HMRIef had photosensitizing ability was examined. In the examination, the singlet oxygen generation ability was evaluated by the light emission intensity at […] under light irradiation conditions using the property that singlet oxygen (^1O2) generated by energy transfer from the photoexcited probe to oxygen molecules emits near-infrared light having a peak top near 1,270 nm.
The right view of FIG. 6 illustrates the light emission spectrum of ^1O2 by 508 nm laser excitation. The dashed line was taken as the background. The spectra were measured in PBS with pH 7.4 containing 0.1% DMSO as a co-solvent (dye concentration: 1 μM). […]

For data set [3] the following is noted: in PBS, used as reference; cited from earlier work.

Turning to `O=c1ccc2c(-c3ccccc3CO)c3ccc(NCC(F)(F)F)cc3oc-2c1` [HMRef], in data set [1], the “fluorescence quantum yield (Φfl)” value amounted to 0.78. Besides, the “singlet oxygen generation quantum yield” value in data set [2] was 0.05±0.14. Consider `O=C([O-])c1c(Cl)c(Cl)c(Cl)c(Cl)c1-c1c2cc(I)c(=O)c(I)c-2oc2c(I)c([O-])c(I)cc12.[Na+].[Na+]` [Rose bengal], for which the “singlet oxygen generation quantum yield (reference value)” value in data set [3] is recorded as 0.75.

(Values after US20240316202A1, “NOVEL PHOTOSENSITIZER” (The University of Tokyo, priority 2020, published 2024).)
